In patent publication US8211935B2, “Heterocyclic derivatives for modulation of calcium channels” (Vertex Pharmaceuticals Incorporated, priority 2004, dated 2012):

What follows are compounds tested against T1, CaV2.2 (Homo sapiens, UniProt Q00975) (assay: VIPR optical membrane potential assay with electrical stimulation). Conditions: not given.
T1 construct: expressed in transfected cells; host or cells: HEK293
Type: cell-based
In short: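 HEK293 cells stably expressing CaV2.2, stained with CC2-DMPE (10 μM final) and oxonol voltage-sensitive dyes, compound added with BaCl2. Membrane potential response evoked by 3-5 s electrical stimulation. Read as background-subtracted 460/580 nm emission ratio, response R=Rf/Ri, normalized to mibefradil positive and no-drug negative controls.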

T1 sequence (Q00975 whole entry): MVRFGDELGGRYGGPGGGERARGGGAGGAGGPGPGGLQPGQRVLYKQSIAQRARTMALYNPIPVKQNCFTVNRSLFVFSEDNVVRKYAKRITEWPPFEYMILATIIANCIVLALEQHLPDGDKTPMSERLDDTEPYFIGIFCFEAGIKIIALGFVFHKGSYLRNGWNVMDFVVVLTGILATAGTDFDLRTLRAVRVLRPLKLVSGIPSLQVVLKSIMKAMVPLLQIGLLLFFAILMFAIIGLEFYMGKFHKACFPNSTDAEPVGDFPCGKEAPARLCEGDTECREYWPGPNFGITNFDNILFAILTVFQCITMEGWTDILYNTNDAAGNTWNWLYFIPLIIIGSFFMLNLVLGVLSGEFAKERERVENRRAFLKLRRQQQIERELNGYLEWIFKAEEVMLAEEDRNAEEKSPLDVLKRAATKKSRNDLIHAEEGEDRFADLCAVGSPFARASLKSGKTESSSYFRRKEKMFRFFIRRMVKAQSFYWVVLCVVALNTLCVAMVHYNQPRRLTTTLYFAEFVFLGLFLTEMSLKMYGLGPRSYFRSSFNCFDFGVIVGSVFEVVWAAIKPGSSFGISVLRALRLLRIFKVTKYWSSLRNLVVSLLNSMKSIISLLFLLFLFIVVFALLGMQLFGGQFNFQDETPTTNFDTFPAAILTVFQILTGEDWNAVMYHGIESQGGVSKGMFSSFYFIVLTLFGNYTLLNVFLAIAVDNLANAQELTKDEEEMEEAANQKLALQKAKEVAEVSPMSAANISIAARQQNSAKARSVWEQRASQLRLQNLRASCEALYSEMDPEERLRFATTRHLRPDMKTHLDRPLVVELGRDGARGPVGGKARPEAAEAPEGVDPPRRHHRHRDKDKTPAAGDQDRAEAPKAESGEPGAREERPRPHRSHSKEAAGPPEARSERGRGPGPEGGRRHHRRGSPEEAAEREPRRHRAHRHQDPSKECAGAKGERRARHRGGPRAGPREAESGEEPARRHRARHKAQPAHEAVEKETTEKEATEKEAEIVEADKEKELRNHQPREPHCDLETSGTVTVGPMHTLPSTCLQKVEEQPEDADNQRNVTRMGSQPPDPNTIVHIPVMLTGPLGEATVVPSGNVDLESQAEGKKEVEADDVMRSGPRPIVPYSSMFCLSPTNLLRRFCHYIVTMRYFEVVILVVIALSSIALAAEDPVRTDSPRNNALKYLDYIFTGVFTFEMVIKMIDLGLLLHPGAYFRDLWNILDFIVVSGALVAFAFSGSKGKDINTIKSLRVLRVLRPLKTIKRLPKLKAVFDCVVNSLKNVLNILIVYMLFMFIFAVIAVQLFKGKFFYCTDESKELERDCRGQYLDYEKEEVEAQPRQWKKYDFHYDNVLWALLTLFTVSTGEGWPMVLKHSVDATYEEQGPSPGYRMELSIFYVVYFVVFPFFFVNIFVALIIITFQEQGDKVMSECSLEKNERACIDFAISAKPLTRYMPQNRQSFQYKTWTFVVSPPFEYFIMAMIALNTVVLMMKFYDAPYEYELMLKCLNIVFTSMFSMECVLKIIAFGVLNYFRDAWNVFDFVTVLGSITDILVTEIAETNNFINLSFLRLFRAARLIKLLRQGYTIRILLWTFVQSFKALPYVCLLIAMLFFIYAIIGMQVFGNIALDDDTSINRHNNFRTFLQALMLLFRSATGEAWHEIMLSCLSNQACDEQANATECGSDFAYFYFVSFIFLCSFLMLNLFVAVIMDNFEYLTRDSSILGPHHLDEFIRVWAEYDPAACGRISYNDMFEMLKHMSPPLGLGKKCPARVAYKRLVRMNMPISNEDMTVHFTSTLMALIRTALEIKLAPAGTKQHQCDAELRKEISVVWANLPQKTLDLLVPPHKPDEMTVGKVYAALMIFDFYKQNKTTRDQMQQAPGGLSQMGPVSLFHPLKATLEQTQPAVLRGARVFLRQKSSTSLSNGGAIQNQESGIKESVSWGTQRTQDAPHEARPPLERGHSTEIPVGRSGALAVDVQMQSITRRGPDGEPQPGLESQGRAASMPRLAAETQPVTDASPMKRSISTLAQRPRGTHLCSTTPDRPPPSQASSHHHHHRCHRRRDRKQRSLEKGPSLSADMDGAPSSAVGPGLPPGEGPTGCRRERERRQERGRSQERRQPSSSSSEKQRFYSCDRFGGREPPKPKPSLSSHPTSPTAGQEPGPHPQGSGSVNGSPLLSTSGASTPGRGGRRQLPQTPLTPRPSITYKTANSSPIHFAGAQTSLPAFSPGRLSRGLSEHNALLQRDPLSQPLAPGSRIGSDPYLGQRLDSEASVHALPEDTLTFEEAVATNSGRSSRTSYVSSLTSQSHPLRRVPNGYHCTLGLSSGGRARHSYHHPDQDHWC
T1 sequence (P54284 whole entry partner): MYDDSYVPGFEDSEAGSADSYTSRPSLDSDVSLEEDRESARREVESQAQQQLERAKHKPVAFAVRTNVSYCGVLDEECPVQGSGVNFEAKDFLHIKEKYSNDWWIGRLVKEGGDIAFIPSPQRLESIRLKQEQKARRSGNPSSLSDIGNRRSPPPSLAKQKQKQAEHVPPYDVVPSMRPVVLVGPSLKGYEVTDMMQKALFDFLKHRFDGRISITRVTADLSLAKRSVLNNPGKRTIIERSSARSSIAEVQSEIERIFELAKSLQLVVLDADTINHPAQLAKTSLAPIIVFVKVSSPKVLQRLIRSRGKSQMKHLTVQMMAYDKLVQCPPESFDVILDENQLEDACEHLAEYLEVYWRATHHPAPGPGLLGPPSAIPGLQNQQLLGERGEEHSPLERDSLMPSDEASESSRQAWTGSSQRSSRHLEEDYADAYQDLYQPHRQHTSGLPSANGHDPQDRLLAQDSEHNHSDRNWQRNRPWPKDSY
T1 sequence (P54289 25-946 partner limits assumed): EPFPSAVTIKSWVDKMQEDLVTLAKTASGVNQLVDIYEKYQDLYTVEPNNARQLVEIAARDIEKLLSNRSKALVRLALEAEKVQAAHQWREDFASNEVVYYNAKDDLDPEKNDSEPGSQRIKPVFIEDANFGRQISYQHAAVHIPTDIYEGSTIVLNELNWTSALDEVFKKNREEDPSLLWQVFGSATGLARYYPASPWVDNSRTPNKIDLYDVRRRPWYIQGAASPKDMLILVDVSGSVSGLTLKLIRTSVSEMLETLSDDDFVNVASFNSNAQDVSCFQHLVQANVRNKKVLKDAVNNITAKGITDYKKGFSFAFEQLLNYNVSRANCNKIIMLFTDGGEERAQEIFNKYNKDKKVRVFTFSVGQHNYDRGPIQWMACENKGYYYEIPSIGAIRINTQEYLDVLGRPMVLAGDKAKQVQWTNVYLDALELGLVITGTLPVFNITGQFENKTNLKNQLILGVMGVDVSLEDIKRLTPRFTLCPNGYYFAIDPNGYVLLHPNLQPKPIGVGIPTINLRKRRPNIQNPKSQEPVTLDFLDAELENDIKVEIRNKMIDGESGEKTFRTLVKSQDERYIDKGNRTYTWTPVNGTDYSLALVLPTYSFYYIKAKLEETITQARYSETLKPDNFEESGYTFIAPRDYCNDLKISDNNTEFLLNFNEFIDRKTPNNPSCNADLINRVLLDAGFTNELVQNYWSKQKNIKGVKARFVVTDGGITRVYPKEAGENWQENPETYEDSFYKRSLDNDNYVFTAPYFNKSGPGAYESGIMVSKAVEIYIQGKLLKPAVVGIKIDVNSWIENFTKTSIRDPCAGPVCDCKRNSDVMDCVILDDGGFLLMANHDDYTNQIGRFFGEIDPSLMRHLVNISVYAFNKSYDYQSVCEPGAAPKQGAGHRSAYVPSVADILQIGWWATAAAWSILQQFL
T1 sequence (P54289 947-1103 partner limits assumed): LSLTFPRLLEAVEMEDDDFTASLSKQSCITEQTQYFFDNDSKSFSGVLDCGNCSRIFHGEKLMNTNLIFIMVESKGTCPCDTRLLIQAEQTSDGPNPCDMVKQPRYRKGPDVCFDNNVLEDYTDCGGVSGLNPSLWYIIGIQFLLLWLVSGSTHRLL

| Structure (SMILES) | IC50 [µM] |
| --- | --- |
| Cc1c(C(=O)N2CCC3(CC2)OCCO3)oc2ccc(S(=O)(=O)N3CCOCC3)cc12 [compound 432] | < 20 |
| Cc1c(C(=O)N2CCC3(CC2)OCCO3)oc2ccc(S(=O)(=O)N3CC(C)CC(C)C3)cc12 (stereo not shown) [compound 343] | 5 to 20 |
| Cc1c(C(=O)N(C)Cc2ccccc2)oc2ccc(S(=O)(=O)N3CC(C)CC(C)C3)cc12 (stereo not shown) [compound 89] | < 5 |
| O=C(c1cc2cc(S(=O)(=O)N3CCCCCC3)ccc2[nH]1)N1CCC2(CC1)OCCO2 [compound 252] | 5 to 20 |

Same assay, conditions: Table 3, biological assay data; read-out: IC50

| Structure (SMILES) | IC50 [µM] |
| --- | --- |
| Cc1c(C(=O)NC(C)C)oc2ccc(S(=O)(=O)N3CCCCCC3)cc12 [compound 110] | 5 to 20 |
| Cc1c(C(=O)N2CC(C)CC(C)C2)[nH]c2ccc(S(=O)(=O)N3CCC(C)CC3)cc12 (stereo not shown) [compound 127] | 5 to 20 |
| CCN(CC)C(=O)c1oc2ccc(S(=O)(=O)N3CCOCC3)cc2c1C [compound 162] | < 20 |
| Cc1c(C(=O)NC(C)C)oc2ccc(S(=O)(=O)N3CCC(F)CC3)cc12 [compound 157] | 5 to 20 |
| CC1CC(C)CN(S(=O)(=O)c2ccc3oc(C(=O)NCCc4ccccc4)cc3c2)C1 (stereo not shown) [compound 2] | < 5 |
| Cc1c(C(=O)N2CCCCCC2)[nH]c2ccc(S(=O)(=O)N3CC(C)CC(C)C3)cc12 (stereo not shown) [compound 362] | < 5 |
| CCNC(=O)c1cc2cc(S(=O)(=O)N3CCC(C)CC3)ccc2o1 [compound 131] | < 5 |
| Cc1c(C(=O)N2CC(C)CC(C)C2)oc2ccc(S(=O)(=O)N3CCCCCC3)cc12 (stereo not shown) [compound 243] | 5 to 20 |
| CC1CCCCN1C(=O)c1cc2cc(S(=O)(=O)N3CCCCCC3)ccc2o1 (stereo not shown) [compound 392] | 5 to 20 |
| Cc1c(C(=O)N2CCCCC2C)oc2ccc(S(=O)(=O)N3CCC(C)CC3)cc12 (stereo not shown) [compound 42] | < 5 |
| CC1CC(C)CN(C(=O)c2cc3cc(S(=O)(=O)N4CC(C)CC(C)C4)ccc3[nH]2)C1 (stereo not shown) [compound 425] | < 5 |
| CC1CC(C)CN(C(=O)c2cc3cc(S(=O)(=O)N4CCCCCC4)ccc3[nH]2)C1 (stereo not shown) [compound 17] | 5 to 20 |
| Cc1c(C(=O)NCC2CCCO2)[nH]c2ccc(S(=O)(=O)N3CC(C)CC(C)C3)cc12 (stereo not shown) [compound 281] | < 5 |
| CC1CC(C)CN(S(=O)(=O)c2ccc3c(c2)cc(C(=O)N2CCCCC2)n3S(=O)(=O)C(C)C)C1 (stereo not shown) [compound 470] | 5 to 20 |
| Cc1c(C(=O)NC2CCCCC2)oc2ccc(S(=O)(=O)N3CCCCC3)cc12 [compound 459] | 5 to 20 |
| Cc1c(C(=O)NCCC2=CCCCC2)oc2ccc(S(=O)(=O)N3CCOCC3)cc12 [compound 197] | < 20 |
| Cc1c(C(=O)N2CCC(C)CC2)oc2ccc(S(=O)(=O)N3CCCC(C)C3)cc12 (stereo not shown) [compound 376] | < 5 |
| CCCCN(C)C(=O)c1cc2cc(S(=O)(=O)N3CCC(C)CC3)ccc2o1 [compound 83] | < 5 |
| Cc1c(C(=O)N2CCCCC2)oc2ccc(S(=O)(=O)N3CCCCC3)cc12 [compound 64] | 5 to 20 |
| CC1CCN(S(=O)(=O)c2ccc3oc(C(=O)N4CCCCC4)cc3c2)CC1 [compound 311] | < 5 |
| CCN(CC)S(=O)(=O)c1ccc2oc(C(=O)N3CC(C)CC(C)C3)c(C)c2c1 (stereo not shown) [compound 164] | < 5 |
| CC1CC(C)CN(S(=O)(=O)c2ccc3oc(C(=O)NCc4ccccc4)cc3c2)C1 (stereo not shown) [compound 276] | < 5 |
| CCOC(=O)N1CCN(C(=O)c2oc3ccc(S(=O)(=O)N4CCC(C)CC4)cc3c2C)CC1 [compound 88] | < 5 |
| Cc1c(C(=O)NCCc2ccccc2)oc2ccc(S(=O)(=O)N3CCCC(C)C3)cc12 (stereo not shown) [compound 445] | < 5 |
| CC1CCN(S(=O)(=O)c2ccc3cc(C(=O)NC4CC4)[nH]c3c2)CC1 [compound 139] | 5 to 20 |

| Structure (SMILES) | IC50 [µM] |
| --- | --- |
| CC1CC(C)CN(S(=O)(=O)c2ccc3[nH]c(C(=O)N(C)Cc4ccccc4)cc3c2)C1 (stereo not shown) [compound 185] | < 5 |
| CC1CCN(C(=O)c2cc3cc(S(=O)(=O)N4CC(C)CC(C)C4)ccc3[nH]2)CC1 (stereo not shown) [compound 194] | < 5 |
| CN(Cc1ccccc1)C(=O)c1cc2cc(S(=O)(=O)N3CCCCCC3)ccc2[nH]1 [compound 416] | < 5 |
| CCN(CC)Cc1cc2cc(S(=O)(=O)N3CCC(C)CC3)ccc2[nH]1 [compound 326] | < 5 |
| CC1CC(C)CN(S(=O)(=O)c2ccc3[nH]c(C(=O)N(C(C)C)C(C)C)cc3c2)C1 (stereo not shown) [compound 217] | < 5 |
| Cc1c(C(=O)NC2CCCCC2)[nH]c2ccc(S(=O)(=O)N3CCCCCC3)cc12 [compound 309] | < 5 |
| Cc1c(C(=O)NC2CC2)oc2ccc(S(=O)(=O)N3CCC(C)CC3)cc12 [compound 395] | 5 to 20 |
| CC1CC(C)CN(S(=O)(=O)c2ccc3[nH]c(C(=O)NC4CCCCC4)cc3c2)C1 (stereo not shown) [compound 329] | 5 to 20 |
| CC1CC(C)CN(S(=O)(=O)c2ccc3oc(C(=O)NC(C)C)cc3c2)C1 (stereo not shown) [compound 271] | < 5 |
| CCN(CC)C(=O)c1cc2cc(S(=O)(=O)N3CC(C)CC(C)C3)ccc2n1CC(O)CN(C)C (stereo not shown) [compound 314] | 5 to 20 |
| Cc1c(C(=O)N2CCC(C)CC2)[nH]c2ccc(S(=O)(=O)N3CCCCCC3)cc12 [compound 342] | < 5 |
| CCN(CC)C(=O)c1[nH]c2ccc(S(=O)(=O)N3CCC(C)CC3)cc2c1C [compound 168] | 5 to 20 |
| CCN(CC)S(=O)(=O)c1ccc2oc(C(=O)N3CCCCCC3)c(C)c2c1 [compound 341] | 5 to 20 |
| Cc1c(C(=O)NCc2ccccc2)[nH]c2ccc(S(=O)(=O)N3CC(C)CC(C)C3)cc12 (stereo not shown) [compound 283] | < 5 |
| Cc1c(C(=O)NC2CC2)oc2ccc(S(=O)(=O)Nc3ccncc3)cc12 [compound 207] | < 20 |
| Cc1c(C(=O)N2CCC(C)CC2)oc2ccc(S(=O)(=O)N3CC(C)CC(C)C3)cc12 (stereo not shown) [compound 466] | < 5 |
| CCOC(=O)C1CCN(C(=O)c2oc3ccc(S(=O)(=O)N4CCCCCC4)cc3c2C)CC1 [compound 19] | < 5 |
| Cc1c(C(=O)NC2CC2)oc2ccc(S(=O)(=O)N3CCCC3)cc12 [compound 210] | < 20 |
| CCNC(=O)c1[nH]c2ccc(S(=O)(=O)N3CCC(C)CC3)cc2c1C [compound 301] | 5 to 20 |
| Cc1c(C(=O)N2CCN(C)CC2)[nH]c2ccc(S(=O)(=O)N3CCC(C)CC3)cc12 [compound 290] | 5 to 20 |
| Cc1c(C(=O)NC2CC2)oc2ccc(S(=O)(=O)N3CCC(F)(F)CC3)cc12 [compound 35] | 5 to 20 |
| Cc1c(C(=O)NCCCc2ccccc2)oc2ccc(S(=O)(=O)N3CCCC(C)C3)cc12 (stereo not shown) [compound 401] | < 5 |
| Cc1c(C(=O)NCc2ccccn2)oc2ccc(S(=O)(=O)N3CCC(C)CC3)cc12 [compound 203] | 5 to 20 |
| CCNC(=O)c1cc2cc(S(=O)(=O)N3CCCCCC3)ccc2[nH]1 [compound 77] | < 5 |
| CCN(CC)C(=O)c1cc2cc(S(=O)(=O)N3CC(C)CC(C)C3)ccc2n1CCCN(C)C (stereo not shown) [compound 230] | 5 to 20 |

| Structure (SMILES) | IC50 [µM] |
| --- | --- |
| Cc1c(C(=O)N2CC(C)CC(C)C2)oc2ccc(S(=O)(=O)N3CCOCC3)cc12 (stereo not shown) [compound 144] | 5 to 20 |
| Cc1c(C(=O)N2CCCC(C)C2)[nH]c2ccc(S(=O)(=O)N3CCC(C)CC3)cc12 (stereo not shown) [compound 81] | < 5 |
| Cc1c(C(=O)N2CCCCCC2)oc2ccc(S(=O)(=O)N3CCC(C)CC3)cc12 [compound 347] | 5 to 20 |
| Cc1c(C(=O)NC(C)C)oc2ccc(S(=O)(=O)N3CCC(F)(F)CC3)cc12 [compound 204] | 5 to 20 |
| Cc1c(C(=O)NC(C)C)[nH]c2ccc(S(=O)(=O)N3CC(C)CC(C)C3)cc12 (stereo not shown) [compound 450] | 5 to 20 |
| CCN(CC)C(=O)c1oc2ccc(S(=O)(=O)N3CCCC(C)C3)cc2c1C (stereo not shown) [compound 199] | < 5 |
| Cc1c(C(=O)NC2CC2)oc2ccc(S(=O)(=O)Nc3ncccn3)cc12 [compound 20] | < 20 |
| CCOC(=O)N1CCN(C(=O)c2oc3ccc(S(=O)(=O)N4CCCCCC4)cc3c2C)CC1 [compound 211] | < 5 |
| Cc1c(C(=O)NC2CC2)oc2ccc(S(=O)(=O)Nc3nccs3)cc12 [compound 447] | < 20 |
| CC(C)N(C(=O)c1cc2cc(S(=O)(=O)N3CCCCCC3)ccc2[nH]1)C(C)C [compound 52] | 5 to 20 |
| CC1CCN(S(=O)(=O)c2ccc3[nH]c(C(=O)N4CCCCC4C)cc3c2)CC1 (stereo not shown) [compound 436] | < 5 |
| CCNC(=O)c1oc2ccc(S(=O)(=O)N3CCCCCC3)cc2c1C [compound 150] | 5 to 20 |
| Cc1c(C(=O)NC2CCCCC2)[nH]c2ccc(S(=O)(=O)N3CC(C)CC(C)C3)cc12 (stereo not shown) [compound 331] | < 5 |
| CC1CCCN(C(=O)c2cc3cc(S(=O)(=O)N4CC(C)CC(C)C4)ccc3o2)C1 (stereo not shown) [compound 406] | < 5 |
| Cc1c(C(=O)NC2CC2)oc2ccc(S(=O)(=O)NCc3ccccc3)cc12 [compound 237] | < 20 |
| Cc1c(C(=O)NC2CCCCC2C)oc2ccc(S(=O)(=O)N3CCOCC3)cc12 (stereo not shown) [compound 123] | 5 to 20 |
| CC1CCN(S(=O)(=O)c2ccc3[nH]c(CN4CCCCC4)cc3c2)CC1 [compound 11] | < 5 |
| CC1CCN(S(=O)(=O)c2ccc3oc(C(=O)NC4CCCCC4)cc3c2)CC1 [compound 219] | 5 to 20 |
| Cc1c(C(=O)NC2CC2)oc2ccc(S(=O)(=O)Nc3ccccc3)cc12 [compound 224] | 5 to 20 |
| CC1CCN(S(=O)(=O)c2ccc3oc(C(=O)N4CCCC(C)C4)cc3c2)CC1 (stereo not shown) [compound 417] | 5 to 20 |
| Cc1c(C(=O)N2CCCC(C)C2)oc2ccc(S(=O)(=O)N3CCCC(C)C3)cc12 (stereo not shown) [compound 413] | < 5 |
| CCN(CC)C(=O)c1oc2ccc(S(=O)(=O)N3CCCCC3)cc2c1C [compound 202] | 5 to 20 |
| CNC(=O)c1oc2ccc(S(=O)(=O)N3CCCC(C)C3)cc2c1C (stereo not shown) [compound 365] | 5 to 20 |
| Cc1c(C(=O)N2CCCC2)[nH]c2ccc(S(=O)(=O)N3CC(C)CC(C)C3)cc12 (stereo not shown) [compound 324] | < 5 |
| CC1CCN(S(=O)(=O)c2ccc3[nH]c(C(=O)NC4CCCCC4)cc3c2)CC1 [compound 448] | 5 to 20 |
